Data: the NIST ThermoML archive (doi:10.1016/j.jct.2011.08.016)
± gives the expanded uncertainty stated by the source.

Experiment: xn = mol fraction of the nth substance listed
Settings: Liquid, Vibrating tube method

Molecule `CCCCCCCCCC` [decane] + CCCCCCCC has a mass density (313.19 K, 10000 kPa, x2 = 0.5314) of 710.43 ± 0.46 kg/m3, a mass density (313.19 K, 10000 kPa, x2 = 0.7736) of 703.28 ± 0.46 kg/m3 and a mass density (313.19 K, 10990 kPa, x2 = 0.5314) of 711.26 ± 0.46 kg/m3. It also gave a mass density (313.19 K, 10990 kPa, x2 = 0.7736) of 704.16 ± 0.47 kg/m3, a mass density (313.19 K, 12000 kPa, x2 = 0.5314) of 712.06 ± 0.47 kg/m3 and a mass density (313.19 K, 12000 kPa, x2 = 0.7736) of 705 ± 0.47 kg/m3. It also gave a mass density (313.19 K, 13000 kPa, x2 = 0.5314) of 712.86 ± 0.47 kg/m3, a mass density (313.19 K, 13000 kPa, x2 = 0.7736) of 705.81 ± 0.48 kg/m3 and a mass density (313.19 K, 14000 kPa, x2 = 0.5314) of 713.65 ± 0.48 kg/m3. For the same molecule, the mass density (313.19 K, 14000 kPa, x2 = 0.7736) was 706.63 ± 0.48 kg/m3, the mass density (313.19 K, 15000 kPa, x2 = 0.5314) was 714.44 ± 0.48 kg/m3 and the mass density (313.19 K, 15000 kPa, x2 = 0.7736) was 707.47 ± 0.49 kg/m3. For the same molecule, the mass density (313.19 K, 16000 kPa, x2 = 0.5314) was 715.21 ± 0.49 kg/m3, the mass density (313.19 K, 16000 kPa, x2 = 0.7736) was 708.28 ± 0.5 kg/m3 and the mass density (313.19 K, 17000 kPa, x2 = 0.5314) was 715.97 ± 0.5 kg/m3. It also gave a mass density (313.19 K, 17000 kPa, x2 = 0.7736) of 709.1 ± 0.5 kg/m3, a mass density (313.19 K, 18000 kPa, x2 = 0.5314) of 716.73 ± 0.5 kg/m3 and a mass density (313.19 K, 18000 kPa, x2 = 0.7736) of 709.83 ± 0.51 kg/m3. For the same molecule, the mass density (313.19 K, 19000 kPa, x2 = 0.5314) was 717.47 ± 0.51 kg/m3, the mass density (313.19 K, 19000 kPa, x2 = 0.7736) was 710.61 ± 0.51 kg/m3 and the mass density (313.19 K, 20000 kPa, x2 = 0.5314) was 718.2 ± 0.51 kg/m3. The mass density (313.19 K, 20000 kPa, x2 = 0.7736) was 711.34 ± 0.52 kg/m3, the mass density (313.19 K, 21000 kPa, x2 = 0.5314) was 718.89 ± 0.52 kg/m3 and the mass density (313.19 K, 21000 kPa, x2 = 0.7736) was 712.07 ± 0.53 kg/m3. For the same molecule, the mass density (313.19 K, 22000 kPa, x2 = 0.5314) was 719.56 ± 0.53 kg/m3, the mass density (313.19 K, 22000 kPa, x2 = 0.7736) was 712.79 ± 0.53 kg/m3 and the mass density (313.19 K, 23000 kPa, x2 = 0.5314) was 720.23 ± 0.53 kg/m3. For the same molecule, the mass density (313.19 K, 23000 kPa, x2 = 0.7736) was 713.47 ± 0.54 kg/m3, the mass density (313.19 K, 24000 kPa, x2 = 0.5314) was 720.88 ± 0.54 kg/m3 and the mass density (313.19 K, 24000 kPa, x2 = 0.7736) was 714.14 ± 0.55 kg/m3. For the same molecule, the mass density (313.19 K, 25000 kPa, x2 = 0.5314) was 721.52 ± 0.54 kg/m3, the mass density (313.19 K, 25000 kPa, x2 = 0.7736) was 714.77 ± 0.55 kg/m3 and the mass density (323.13 K, 1000 kPa, x2 = 0.2801) was 701.5 ± 0.41 kg/m3. For the same molecule, the mass density (323.13 K, 2000 kPa, x2 = 0.2801) was 702.42 ± 0.42 kg/m3, the mass density (323.13 K, 3000 kPa, x2 = 0.2801) was 703.33 ± 0.42 kg/m3 and the mass density (323.13 K, 4000 kPa, x2 = 0.2801) was 704.26 ± 0.43 kg/m3. The mass density (323.13 K, 5000 kPa, x2 = 0.2801) was 705.16 ± 0.43 kg/m3, the mass density (323.13 K, 6000 kPa, x2 = 0.2801) was 706.06 ± 0.43 kg/m3 and the mass density (323.13 K, 7000 kPa, x2 = 0.2801) was 706.95 ± 0.44 kg/m3. The mass density (323.13 K, 8000 kPa, x2 = 0.2801) was 707.83 ± 0.44 kg/m3, the mass density (323.13 K, 9000 kPa, x2 = 0.2801) was 708.7 ± 0.45 kg/m3 and the mass density (323.13 K, 10000 kPa, x2 = 0.2801) was 709.57 ± 0.45 kg/m3. It also gave a mass density (323.13 K, 10990 kPa, x2 = 0.2801) of 710.5 ± 0.46 kg/m3, a mass density (323.13 K, 12000 kPa, x2 = 0.2801) of 711.29 ± 0.47 kg/m3 and a mass density (323.13 K, 13000 kPa, x2 = 0.2801) of 712.12 ± 0.47 kg/m3. It also gave a mass density (323.13 K, 14000 kPa, x2 = 0.2801) of 712.97 ± 0.48 kg/m3, a mass density (323.13 K, 15000 kPa, x2 = 0.2801) of 713.78 ± 0.48 kg/m3 and a mass density (323.13 K, 16000 kPa, x2 = 0.2801) of 714.58 ± 0.49 kg/m3. For the same molecule, the mass density (323.13 K, 17000 kPa, x2 = 0.2801) was 715.38 ± 0.49 kg/m3, the mass density (323.13 K, 18000 kPa, x2 = 0.2801) was 716.14 ± 0.5 kg/m3 and the mass density (323.13 K, 19000 kPa, x2 = 0.2801) was 716.9 ± 0.51 kg/m3. The mass density (323.13 K, 20000 kPa, x2 = 0.2801) was 717.66 ± 0.51 kg/m3, the mass density (323.13 K, 21000 kPa, x2 = 0.2801) was 718.38 ± 0.52 kg/m3 and the mass density (323.13 K, 22000 kPa, x2 = 0.2801) was 719.06 ± 0.52 kg/m3. It also gave a mass density (323.13 K, 23000 kPa, x2 = 0.2801) of 719.71 ± 0.53 kg/m3, a mass density (323.13 K, 24000 kPa, x2 = 0.2801) of 720.38 ± 0.54 kg/m3 and a mass density (323.13 K, 25000 kPa, x2 = 0.2801) of 721 ± 0.54 kg/m3. It also gave a mass density (323.15 K, 1000 kPa, x2 = 0.5314) of 694.85 ± 0.42 kg/m3, a mass density (323.15 K, 1000 kPa, x2 = 0.7736) of 687.38 ± 0.42 kg/m3 and a mass density (323.15 K, 1000 kPa, x2 = 0.9623) of 680.8 ± 0.42 kg/m3. The mass density (323.15 K, 2000 kPa, x2 = 0.5314) was 695.78 ± 0.42 kg/m3, the mass density (323.15 K, 2000 kPa, x2 = 0.7736) was 688.41 ± 0.42 kg/m3 and the mass density (323.15 K, 2000 kPa, x2 = 0.9623) was 681.8 ± 0.43 kg/m3. The mass density (323.15 K, 3000 kPa, x2 = 0.5314) was 696.73 ± 0.42 kg/m3, the mass density (323.15 K, 3000 kPa, x2 = 0.7736) was 689.33 ± 0.43 kg/m3 and the mass density (323.15 K, 3000 kPa, x2 = 0.9623) was 682.74 ± 0.43 kg/m3. For the same molecule, the mass density (323.15 K, 4000 kPa, x2 = 0.5314) was 697.62 ± 0.43 kg/m3, the mass density (323.15 K, 4000 kPa, x2 = 0.7736) was 690.27 ± 0.43 kg/m3 and the mass density (323.15 K, 4000 kPa, x2 = 0.9623) was 683.68 ± 0.43 kg/m3. The mass density (323.15 K, 5000 kPa, x2 = 0.5314) was 698.58 ± 0.43 kg/m3, the mass density (323.15 K, 5000 kPa, x2 = 0.7736) was 691.21 ± 0.44 kg/m3 and the mass density (323.15 K, 5000 kPa, x2 = 0.9623) was 684.65 ± 0.44 kg/m3. The mass density (323.15 K, 6000 kPa, x2 = 0.5314) was 699.53 ± 0.44 kg/m3, the mass density (323.15 K, 6000 kPa, x2 = 0.7736) was 692.18 ± 0.44 kg/m3 and the mass density (323.15 K, 6000 kPa, x2 = 0.9623) was 685.6 ± 0.45 kg/m3. The mass density (323.15 K, 7000 kPa, x2 = 0.5314) was 700.45 ± 0.44 kg/m3, the mass density (323.15 K, 7000 kPa, x2 = 0.7736) was 693.12 ± 0.45 kg/m3 and the mass density (323.15 K, 7000 kPa, x2 = 0.9623) was 686.57 ± 0.45 kg/m3. For the same molecule, the mass density (323.15 K, 8000 kPa, x2 = 0.5314) was 701.36 ± 0.45 kg/m3, the mass density (323.15 K, 8000 kPa, x2 = 0.7736) was 694.08 ± 0.45 kg/m3 and the mass density (323.15 K, 8000 kPa, x2 = 0.9623) was 687.54 ± 0.46 kg/m3. For the same molecule, the mass density (323.15 K, 9000 kPa, x2 = 0.5314) was 702.24 ± 0.45 kg/m3, the mass density (323.15 K, 9000 kPa, x2 = 0.7736) was 694.99 ± 0.46 kg/m3 and the mass density (323.15 K, 9000 kPa, x2 = 0.9623) was 688.5 ± 0.46 kg/m3. For the same molecule, the mass density (323.15 K, 10000 kPa, x2 = 0.5314) was 703.12 ± 0.46 kg/m3, the mass density (323.15 K, 10000 kPa, x2 = 0.7736) was 695.89 ± 0.46 kg/m3 and the mass density (323.15 K, 10000 kPa, x2 = 0.9623) was 689.46 ± 0.47 kg/m3. The mass density (323.15 K, 10990 kPa, x2 = 0.5314) was 703.99 ± 0.46 kg/m3, the mass density (323.15 K, 10990 kPa, x2 = 0.7736) was 696.8 ± 0.47 kg/m3 and the mass density (323.15 K, 10990 kPa, x2 = 0.9623) was 690.4 ± 0.47 kg/m3. It also gave a mass density (323.15 K, 12000 kPa, x2 = 0.5314) of 704.86 ± 0.47 kg/m3, a mass density (323.15 K, 12000 kPa, x2 = 0.7736) of 697.73 ± 0.48 kg/m3 and a mass density (323.15 K, 12000 kPa, x2 = 0.9623) of 691.34 ± 0.48 kg/m3. It also gave a mass density (323.15 K, 13000 kPa, x2 = 0.5314) of 705.72 ± 0.48 kg/m3.
